Paper PMC7144563 (Molecules, 2020)

Description: Cellulose membrane was properly treated and mounted in the Franz diffusion cells (diffusion area 4.9 cm^2, compartment volume 20 mL). The acceptor compartment was filled with PBS pH 7.4 and the donor compartment was filled with 1 mL of the formulation described above (100 μg/mL of the compounds). Permeation studies were conducted under constant stirring (90 rpm) at 37 °C. Samples of 0.5 mL were withdrawn from the acceptor compartment at predetermined time intervals (30 min, 1 h, 2 h, 4 h, 6 h, 8 h) and replaced with fresh and preheated PBS. Experiments were repeated in triplicates for each compound and blank experiments containing only the medium were also performed. The samples were analyzed by HPLC without any previous pretreatment.
Steady state flux (Jss) was calculated from the slope of the linear section of the plot of the amount of permeated compound per unit area (μg/cm^2) against to time. The apparent permeability coefficient (Papp) was calculated using Equation (3), where Cd is the initial concentration of the drug in the donor compartment and Jss is the steady state flux. (3) Papp=Jss/Cd

| Structure (SMILES) | Papp values compared to the rest of the tested steroids (during the first 4 h (2 h and 4 h) of the in vitro permeability study, considered outlier) | apparent permeability coefficient (Papp) (pH 7.4) |
| --- | --- | --- |
| C[C@]12CCC(=O)C[C@@H]1CC[C@@H]1[C@@H]2CC[C@]2(C)[C@@H](O)CC[C@@H]12 [COMP 3, Androstanolone] | significantly higher |  |
| C[C@]12C=CC(=O)C=C1CC[C@@H]1[C@@H]2C(=O)C[C@@]2(C)[C@H]1CC[C@]2(O)C(=O)CO [COMP 27, Prednisone] |  | highest |
